Experimental data: patent publication US10709724B2, “Methods of treating mitochondrial dysfunction” (Ecole Polytechnique Federale de Lausanne (EPFL), priority 2011, dated 2020)
“Also recorded” adds a separate entry of the source.

Legend:
[1] = system: SIRT1; experiment: SIRT1 activity (FOXO1 acetylation, target genes) in NR-treated HEK293T cells; assay type: cell-based, human
Description: (§1) mRNA and mtDNA Analysis. Total RNA was prepared using TRIzol (Invitrogen) according to the manufacturer's instructions. RNA was treated with DNase, and 2 μg of RNA was used for reverse transcription (RT). cDNA was purified on QIAquick PCR cleanup columns (Qiagen, Valencia, Calif., USA). 50× diluted cDNA was used for RT-quantitative PCR (RT-VCR) VCR) reactions (Bai et al., 2007). The RT-qPCR reactions were performed using the Light-Cycler system (Roche Applied Science) and a qPCR Supermix (Qiagen) with the primers for mice summarized in Table 1 and 4, and with the primers for worms summarized on Table 7. mtDNA quantification was performed as described (Lagouge et al., 2006) with the primers indicated in Table 2 and 5.
(§2) Immunoprecipitation, SDS-PAGE, Western Blotting. Cells were lysed in lysis buffer (50 mM Tris, […], EDTA 1 mM, NP40 1%, nicotinamide 5 mM, Na-butyrate 1 in M, protease inhibitors pH7.4). Proteins were separated by SDS-PAGE and transferred onto nitrocellulose membranes. The origin of the primary and secondary antibodies used can be found as supplemental experimental procedures. Reactions were developed by enhanced chemiluminescence (Amersham, Little Chalfont, UK), PGC-1α, FOXO1 and Ndufa9 acetylation levels were analyzed by immunoprecipitation from cellular or nuclear lysates of tissues with anti-PGC-1α (Millipore), anti-FOXO1 (Cell Signaling, Danvers, Mass., USA) and anti-Ndufa9 (Abcam) antibody followed by Western blot using an acetyl-lysine antibody (Cell Signaling) that was normalized to total PGC-1a/FOXO1/Ndufa9 levels (Lagouge et al., 2006; Rodgers et al., 2005). In HEK293T cells HA-tagged PGC-1α was overexpressed and was immunoprecipitated using an anti-HA. In C2C12 myotubes, FLAG-HA tagged PGC-1α was introduced through adenoviral delivery 2 days before treatments, then IP was performed using anti-FLAG antibody and samples were processed as described. All blots were quantified by densitometry using ImageJ software. Poly(ADP-Ribose) detection was performed as previously described with slight modifications (Bai et al., PARP-1 inhibition increases mitochondrial metabolism through SIRT1 activation. Cell Metab 13, 461-468. (2011)) Briefly, PAR was detected by using a monoclonal anti-PAR antibody (Alexis, Lausanne Switzerland) by Western blotting of total protein lysates, using either 50 g of total worm protein lysates, 50 g of liver protein lysate or 200 g of muscle total protein extracts. PGC-1 acetylation was determined using PGC-1 immunoprecipitates from 2 mg of protein extracts, as described in Canto et al. (Canto et al., AMPK regulates energy expenditure by modulating NAD+ metabolism and SIRT1 activity. Nature 458, 1056 (2009)).

[2] = biological target: T1, GPR109A (Homo sapiens, UniProt Q8TDS4); assay type: cell-based; conditions: GPR109A-expressing Chem-4 cells
T1 construct: host or cells: Chem-4 cells (Ready-to-Assay GPR109A Nicotinic Acid Receptor Cells)
Description: GPR109A—Calcium Mobilization Assay. Ready-to-Assai™ GRP109A Nicotinic Acid Receptor Cells were used to measure calcium mobilization as specified by the manufacturer (Millipore). Calcium flux was determined using excitation at 340 and 380 nm in a fluorescence spectrophotometer (Victor X4, Perkin Elmer) in a 180 seconds time course, adding the ligand at 60 seconds. Internal validation was made using 0.1% Triton X-100 for total fluorophore release and 10 mM EGTA to chelate free calcium. Similarly, GPR109A specificity was internally validated using control cells devoid of GRP109A overexpression. Liver triglyceride measurement Liver triglycerides were measured from 20 mg of liver tissue using a variation of the Folch method, as described in Bai et al. (Bai et al., PARP-2 regulates SIRT1 expression and whole-body energy expenditure. (2011). Cell Metab 13, 450-460.

[3] = system: SIRT3; experiment: SIRT3 activity (Ndufa9, SOD2 acetylation) in NR-treated HEK293T cells; assay type: cell-based, human; conditions: 0.5 mM, 24 hrs
Description: as §2, with “(2009)). […]” for “(2009)).”

[4] = system: C. elegans; experiment: Worm respiration assay (Seahorse XF24); assay type: in vivo; conditions: day 3 adult worms
Description: Worm Respiration Assays Oxygen consumption was measured using the Seahorse XF24 equipment (Seahorse Bioscience Inc., North Billerica, Mass.) as described in Yamamoto et al. Typically, 200 animals per conditions were recovered from NGM plates with M9 medium, washed three times in 2 mLM9 to eliminate residual bacteria, and resuspended in 500 μL M9 medium. Worms were transferred in 24-well standard Seahorse plates (#100777-004) (50 worms per well) and oxygen consumption was measured 6 times. Respiration rates were normalized to the number of worms in each individual well. NAD measurement by HPLC For NAD+ quantification, approximately 1000 worms were collected in M9 buffer, washed five times to remove residual bacteria and flash-frozen in liquid nitrogen and stored at −80° C. until analysis. Extraction was started by adding 250 μl of 1.6M perchloric acid on frozen samples, followed by extensive homogenization in a Qiagen tissuelyser, and centrifugation at 20.000 g for 15 min. The supernatant was recovered and neutralized with a 3M potassium carbonate solution. After centrifugation, 100 μl of supernatant was filtered and used for NAD measurement using an HPLC system (Agilent) with a Supelco LC-18-T column (Sigma), as described in Yoshino et al. (Yoshino, K. F. Mills, M. J. Yoon, S. Imai, Nicotinamide Mononucleotide, a Key NAD(+) Intermediate, Treats the Pathophysiology of Diet- and Age-Induced Diabetes in Mice. Cell Metab 14, 528 (2011)).

[5] = system: HEK293T cells; experiment: Nampt, PARP activity, glycolysis and ATP in NR-treated HEK293T cells; assay type: cell-based, human
Description: as §1
Immunoprecipitation, SDS-PAGE, Western Blotting. […] Reactions were developed by enhanced chemiluminescence (Amersham, Little Chalfont, UK), PGC-1α, FOXO1 and Ndufa9 acetylation levels were analyzed by immunoprecipitation from cellular or nuclear lysates of tissues with anti-PGC-1α (Millipore), anti-FOXO1 (Cell Signaling, Danvers, Mass., USA) and anti-Ndufa9 (Abcam) antibody followed by Western blot using an acetyl-lysine antibody (Cell Signaling) that was normalized to total PGC-1a/FOXO1/Ndufa9 levels (Lagouge et al., 2006; Rodgers et al., 2005). […] All blots were quantified by densitometry using ImageJ software. […]

[6] = system: C57Bl/6J mice; experiment: Hyperinsulinemic-euglycemic clamp in CD and CD-NR mice; assay type: in vivo; conditions: 4 weeks of treatment
Description: Hyperinsulinemic-euglycemic clamps were performed as described (Lagouge et al., 2006).

[7] = system: AMP-activated protein kinase (AMPK); experiment: AMPK activity (ACC phosphorylation) in C2C12 myotubes; assay type: cell-based; conditions: 24 hrs
Description: as §2, with “In C2C12 myotubes, FLAG-HA tagged PGC-1α was introduced through adenoviral delivery 2 days before treatments, then IP was performed using anti-FLAG antibody and samples were processed as described.” left out, “Poly(ADP-Ribose) detection was performed as previously described with slight modifications (Bai et al., PARP-1 inhibition increases mitochondrial metabolism through SIRT1 activation. Cell Metab 13, 461-468. (2011)) Briefly, PAR was detected by using a monoclonal anti-PAR antibody (Alexis, Lausanne Switzerland) by Western blotting of total protein lysates, using either 50 g of total worm protein lysates, 50 g of liver protein lysate or 200 g of muscle total protein extracts.” left out

T1 sequence (Q8TDS4 whole entry): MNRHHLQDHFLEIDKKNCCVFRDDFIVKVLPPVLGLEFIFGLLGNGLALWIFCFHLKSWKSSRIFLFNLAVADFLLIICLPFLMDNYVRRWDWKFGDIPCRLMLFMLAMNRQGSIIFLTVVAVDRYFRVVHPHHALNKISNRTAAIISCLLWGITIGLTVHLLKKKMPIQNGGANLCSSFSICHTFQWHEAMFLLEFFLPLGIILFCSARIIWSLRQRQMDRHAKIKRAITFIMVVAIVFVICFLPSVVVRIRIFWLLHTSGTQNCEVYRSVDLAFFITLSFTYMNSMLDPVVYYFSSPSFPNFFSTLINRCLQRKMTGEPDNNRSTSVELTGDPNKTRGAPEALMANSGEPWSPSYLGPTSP

Row | Compound | expression of FOXO1 target genes (Gadd45, Catalase, Sod1, Sod2) [1] | Sod2 expression ([1]; 0.5 mM, 24 hrs) | Ucp2 mRNA levels ([1]; 0.5 mM, 24 hrs) | Ucp2 expression with Sirt1 knock-down ([1]; 0.5 mM, 24 hrs, SIRT1 siRNAs) | intracellular NAD+ content with SIRT1 knock-down ([1]; 0.5 mM, 24 hrs, SIRT1 siRNAs) | Sod2 expression with Foxo1 or Sirt1 knockdown ([1]; 0.5 mM, 24 hrs, siRNAs) | SIRT1 protein levels ([1]; 24 hrs) | acetylation of FOXO1 ([1]; 24 hrs, SIRT1-dependent) | GPR109A activation (calcium flux) [2] | SOD2 activity [3] | acetylation status of Ndufa9 [3] | acetylation status of SOD2 [3] | oxygen consumption (respiration) [4] | cellular glycolytic rates or ATP levels [5] | Nampt mRNA or protein content ([5]; 0.5 mM, 24 hrs) | glucose infusion rate to maintain euglycemia, vs vehicle [6] [fold] | insulin-induced muscle glucose uptake [6] | AMPK activity (ACC phosphorylation levels) [7]
1 | NC(=O)c1ccc[n+]([C@@H]2O[C@H](CO)[C@@H](O)[C@H]2O)c1 [NR, nicotinamide riboside] | higher expression of target genes | higher expression of a FOXO1 target gene, Sod2 | decreased Ucp2 mRNA levels | knocking down Sirt1 prevented the action of NR on Ucp2 expression | did not compromise the ability of NR to increase intracellular NAD^+ content | prevented by the knockdown of either Foxo1 or Sirt1 | lack of changes in SIRT1 protein levels | dose-dependently decreased the acetylation of FOXO1 | did not activate GPR109A | enhanced SOD2 activity | reduced the acetylation status | reduced the acetylation status | increased respiration; also recorded: Oxygen consumption was increased | not linked to changes in cellular glycolytic rates or ATP levels | could not see any change | ~2 | very marked increase | –
2 | CN(C)CC(=O)Nc1ccc2[nH]c(=O)c3ccccc3c2c1 [PJ34] | – | – | – | – | – | – | – | – | – | – | – | – | – | – | – | – | – | does not alter AMPK activity
